Read-outs that look alike come from different tables or passages of the source. Blank lines part the entries; values can stand above or below the molecule they belong to.
Tests used:
Human Tau (441a.a.) = Human Tau (441a.a.) (Homo sapiens, UniProt P10636); experiment: Scatchard saturation test with ^3H-AST, tau filaments; format: binding; settings: for Affinity to tau filaments (in words): saturation studies, FIG. 12
From the text: (§1) Interactions of quinolines with tau and in vitro displacement tests with H^3-AST. In previous laboratory tests by the inventor and also from other authors (Okamura N., Suemoto T., Furumoto S., Suzuki M., Shimadzu H., Akatsu H., Yamamoto T., Fujiwara H., Nemoto M., Maruyama M., Arai H., Yanai K., Sawada T., Kudo Y. (2005), Quinoline and becimidazole derivatives: candidate probes for in vivo imaging of tau pathology in Alzheimer's disease, J. Neurosci. 25: 10857-10862; Rojo L., Avila M., Chandia M., and Maccioni R. B. (2007), ^18F Lansoprazole as PET radiotracer, Chemical and biological studies towards the development of a New PET Radiotracer, International Conference on Clinical PET and Molecular Nuclear Medicine. 10-14 November, Bangkok) the Kd and binding maximums specific to some benzimidazols of clinical use were established, among them [O-methyl-3H]-astemizol (FIG. 2) through the interaction established with the tau protein. With this background Scatchard and displacement tests are performed with the quinolines mentioned before.
(§2) For the Scatchard test a fixed tau protein concentration (230 nM) and variable concentrations of ^3H-AST between 10 and 120 nM was used, leading to a final volume of 20 μL with 8% ethanol (EtOH 8%). The tau protein underwent treatment previous to this test, incubating the same at 37° C. under gentle agitation for 7 days. Subsequently the tau protein and ^3H-AST were incubated for 4 h at 25° C. under gentle agitation. Then this solution was filtered under vacuum for 10 minutes and the filtering papers were dried at room temperature, and transferred to a vial with 1.0 mL of scintillating liquid. It is then left in the dark and finally the counts per minute (cpm) are measured in a scintillating counting equipment.

[1] = tested on: tau protein from bovine brain; settings: 7 days 37° C.; for Tau polymer concentration: tau 2.0 mg/mL, heparin 200 μg/mL, +control 3.00, −control 1.38
Procedure: (§3) Effect of the quinolines in the tau aggregation. Turbidimetric studies. Tau aggregation was monitored by means of its absorbance at λ 340 nm using UV spectrophotometry. Purified and highly concentrated tau protein from bovine brain (2.0 mg/mL) was re-suspended in MES 0.1 M pH 7.2 buffer and induced to polymerize in the form of PHFs in the presence of polyanions (heparin at a concentration of 200 μg/mL) at a final volume of 1.0 mL. This mixture was incubated at 37° C. and maintained under gentle agitation for 7 days. At the same time, another sample containing the tau protein, heparin (200 μg/mL) and the selected quinoline at different concentrations from 1.0 to 50 μM and a final volume of 1.0 mL was incubated in the same way, thus verifying the effect that quinolines have over tau aggregation. […] As an additional control the tau protein was replaced with water in order to measure the absorbance of these quinolines. Each sample was carried out in triplicate.
Effect of quinolines in tau aggregation. Sedimentation studies. After 7 days of incubation at 37° C. under gentle agitation, the sedimentation of the tau aggregates was conducted in the presence and in absence of quinolines. To this purpose, 400 μl were taken of each one of the samples prepared for the turbidimetric analysis and they were centrifuged at 42,000 g (18.000 rpm using the AH-650 rotor) at 37° C. for 25 min. The pellet obtained from each sample of this centrifugation was re-suspended in 50 μL of MES 0,1 M slightly alkaline (pH 7.2) buffer and the concentration of protein was established for each one of them. In this procedure, and because the sample volume is very small, a nanophotometer was used, measuring the concentration of the sedimented and re-suspended protein at λ 280 nm.

mGluR 5 = mGluR 5 (Homo sapiens, UniProt P41594); settings: Yanamala et al. 2008; cited from earlier work
mGluR 5, sequence (P41594 21-1212): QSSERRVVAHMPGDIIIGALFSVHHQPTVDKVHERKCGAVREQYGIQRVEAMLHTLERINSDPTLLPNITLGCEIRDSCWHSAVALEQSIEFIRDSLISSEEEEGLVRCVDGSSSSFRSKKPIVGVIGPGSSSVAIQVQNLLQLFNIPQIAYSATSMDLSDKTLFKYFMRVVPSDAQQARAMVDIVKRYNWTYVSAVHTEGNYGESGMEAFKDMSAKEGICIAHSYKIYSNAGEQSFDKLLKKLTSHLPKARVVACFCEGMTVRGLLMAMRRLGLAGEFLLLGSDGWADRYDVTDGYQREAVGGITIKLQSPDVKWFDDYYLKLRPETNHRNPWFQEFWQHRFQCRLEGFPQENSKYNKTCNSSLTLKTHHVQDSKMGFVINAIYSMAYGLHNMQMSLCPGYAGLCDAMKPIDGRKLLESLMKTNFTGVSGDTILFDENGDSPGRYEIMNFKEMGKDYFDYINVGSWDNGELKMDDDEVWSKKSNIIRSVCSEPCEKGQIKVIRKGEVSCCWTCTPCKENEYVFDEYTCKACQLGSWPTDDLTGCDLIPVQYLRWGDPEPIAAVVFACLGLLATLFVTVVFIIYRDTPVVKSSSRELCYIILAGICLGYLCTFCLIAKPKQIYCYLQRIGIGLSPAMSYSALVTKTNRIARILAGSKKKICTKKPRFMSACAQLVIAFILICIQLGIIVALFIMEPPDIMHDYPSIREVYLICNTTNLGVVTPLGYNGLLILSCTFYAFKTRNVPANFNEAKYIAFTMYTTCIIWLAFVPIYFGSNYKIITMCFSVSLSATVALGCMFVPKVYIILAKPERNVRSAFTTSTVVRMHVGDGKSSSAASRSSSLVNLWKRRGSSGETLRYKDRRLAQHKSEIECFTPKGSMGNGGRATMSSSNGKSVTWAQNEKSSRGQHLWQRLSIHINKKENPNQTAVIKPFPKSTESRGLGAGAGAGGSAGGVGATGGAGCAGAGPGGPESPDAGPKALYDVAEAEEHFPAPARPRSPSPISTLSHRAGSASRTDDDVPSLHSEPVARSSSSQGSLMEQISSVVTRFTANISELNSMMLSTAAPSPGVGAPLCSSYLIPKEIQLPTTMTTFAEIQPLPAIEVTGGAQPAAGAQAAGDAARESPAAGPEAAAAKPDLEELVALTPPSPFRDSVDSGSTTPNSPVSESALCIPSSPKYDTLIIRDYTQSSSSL

mGluR I = mGluR I (Homo sapiens, UniProt Q13255); settings: Yanamala et al. 2008; cited from earlier work
mGluR I, sequence (Q13255 19-1194): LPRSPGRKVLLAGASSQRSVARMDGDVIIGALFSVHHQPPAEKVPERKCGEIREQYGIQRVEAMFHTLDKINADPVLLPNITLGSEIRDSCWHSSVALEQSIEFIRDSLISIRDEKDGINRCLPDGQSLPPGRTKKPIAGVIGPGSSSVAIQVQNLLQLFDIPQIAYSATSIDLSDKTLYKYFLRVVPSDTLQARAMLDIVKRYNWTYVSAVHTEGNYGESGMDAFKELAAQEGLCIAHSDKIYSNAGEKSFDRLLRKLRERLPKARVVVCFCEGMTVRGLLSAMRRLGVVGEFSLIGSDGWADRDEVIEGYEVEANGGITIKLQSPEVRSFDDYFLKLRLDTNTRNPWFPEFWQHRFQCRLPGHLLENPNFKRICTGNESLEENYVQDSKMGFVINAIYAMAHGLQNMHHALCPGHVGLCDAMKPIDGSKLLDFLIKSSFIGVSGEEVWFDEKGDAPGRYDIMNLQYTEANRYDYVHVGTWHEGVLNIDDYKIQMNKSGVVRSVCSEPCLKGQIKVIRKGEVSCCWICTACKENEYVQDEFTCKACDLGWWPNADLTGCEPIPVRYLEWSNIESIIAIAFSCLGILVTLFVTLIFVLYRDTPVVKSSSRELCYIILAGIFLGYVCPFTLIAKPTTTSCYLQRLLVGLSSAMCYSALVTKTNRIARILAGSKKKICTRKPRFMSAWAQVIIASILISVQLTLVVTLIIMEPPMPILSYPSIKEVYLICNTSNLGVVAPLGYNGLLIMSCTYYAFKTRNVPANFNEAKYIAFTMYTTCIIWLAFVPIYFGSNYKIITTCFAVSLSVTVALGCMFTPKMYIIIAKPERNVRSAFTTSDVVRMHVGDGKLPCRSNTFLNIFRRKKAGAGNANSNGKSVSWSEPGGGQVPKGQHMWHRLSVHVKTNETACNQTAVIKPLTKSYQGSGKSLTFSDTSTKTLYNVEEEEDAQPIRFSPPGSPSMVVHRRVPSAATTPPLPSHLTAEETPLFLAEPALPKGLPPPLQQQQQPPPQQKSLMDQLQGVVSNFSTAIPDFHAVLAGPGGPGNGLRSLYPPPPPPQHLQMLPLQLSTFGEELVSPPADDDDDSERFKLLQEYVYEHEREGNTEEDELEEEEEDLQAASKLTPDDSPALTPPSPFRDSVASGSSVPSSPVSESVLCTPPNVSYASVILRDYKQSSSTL

[2] = Octanol/water partition coefficient (Log P); format: physicochemical; settings: for Liposolubility expressed as Log P (in words): as candidates to cross the BHE; for logP: n-octanol / PBS 0.1× buffer, read-out: Log P (experimental)
Procedure: Pharm. Hung. 62 (1-2): 55-64, wherein 2 phases are used, an aqueous phase comprising a buffer solution PBS 0.1× pH 7.4 that is saturated with an n-octanol solution that comprises the organic phase.
Stock solutions at 1.0 mg/mL of each quinoline being studied were prepared in PBS buffer 0.1× pH 7.4 saturated in octanol. […] Starting from these solutions, dilutions were made for a range concentration of between 1.0 mg/mL and 100 μg/mL to establish their maximum absorbance in the UV-visible region.
Then the tested quinolines were dissolved in PBS 0.1× pH 7.4 saturated in n-octanol and agitated for 30 min. at room temperature. Subsequently, this emulsion was left to settle for 48 h and a centrifugation at 3,000 rpm for 10 minutes was carried out to separate the phases. Both the octanol/water partition coefficient and Log P were established using the difference in the absorbance in the UV-visible region for each compound using equation 1:
[THQ in octanol]=[THQ start]−[THQ buffer] Éq. 1:
The concentrations for THQ start are established using equation 2: […]
Subsequently, the P quotient in established between both phases as described by equation 3: […]
Finally the partition coefficient is established by Log P.
For this test 2 controls were used: clidinium bromide that is a quaternary amine that is not liposoluble, and sodium thiopental, which is a very liposoluble barbituric anaesthetic. Each part of the test was done in triplicate.

hTau protein [3] = biological target: T1, hTau protein (Homo sapiens, UniProt P10636); settings: hTau 230 nM, ^3H-AST 52 nM, cold ligand 10 nM to 10 μM
T1 sequence (P10636 with tags, fused parts or gaps): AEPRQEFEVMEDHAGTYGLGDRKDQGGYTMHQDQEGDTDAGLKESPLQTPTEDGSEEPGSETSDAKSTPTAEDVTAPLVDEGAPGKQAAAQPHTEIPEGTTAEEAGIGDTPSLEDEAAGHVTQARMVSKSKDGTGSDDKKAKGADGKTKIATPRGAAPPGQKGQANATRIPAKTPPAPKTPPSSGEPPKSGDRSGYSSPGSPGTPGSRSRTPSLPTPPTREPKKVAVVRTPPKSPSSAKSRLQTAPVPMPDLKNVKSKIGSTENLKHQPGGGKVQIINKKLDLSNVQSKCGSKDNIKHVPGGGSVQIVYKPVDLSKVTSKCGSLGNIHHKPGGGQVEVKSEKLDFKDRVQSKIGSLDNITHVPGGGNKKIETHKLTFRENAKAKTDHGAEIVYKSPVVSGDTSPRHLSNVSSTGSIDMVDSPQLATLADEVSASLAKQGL
Procedure: (§4) Subsequently, the tau protein, ^3H-AST and the quinolines are incubated for 4 hours at 25° C. under gentle agitation and the procedure depicted in FIG. 3 is followed.

hTau protein [4] = biological target: T1, hTau protein; experiment: biochemical
Procedure: as §4

[5] = tested on: tau protein from bovine brain; settings: THQ 55 1.0 to 50 μM, FIG. 11
Procedure: as §3

Human PHFs = experiment: Scatchard saturation test with ^3H-AST, PHFs; format: binding
From the text: as §1, §2

[6] = partition coefficient octanol/PBS buffer 0.1× pH 7.4, triplicate
[7] = tau filaments induced with heparin

Human Tau (441a.a.), sequence (P10636 1-441 isoform P10636-8): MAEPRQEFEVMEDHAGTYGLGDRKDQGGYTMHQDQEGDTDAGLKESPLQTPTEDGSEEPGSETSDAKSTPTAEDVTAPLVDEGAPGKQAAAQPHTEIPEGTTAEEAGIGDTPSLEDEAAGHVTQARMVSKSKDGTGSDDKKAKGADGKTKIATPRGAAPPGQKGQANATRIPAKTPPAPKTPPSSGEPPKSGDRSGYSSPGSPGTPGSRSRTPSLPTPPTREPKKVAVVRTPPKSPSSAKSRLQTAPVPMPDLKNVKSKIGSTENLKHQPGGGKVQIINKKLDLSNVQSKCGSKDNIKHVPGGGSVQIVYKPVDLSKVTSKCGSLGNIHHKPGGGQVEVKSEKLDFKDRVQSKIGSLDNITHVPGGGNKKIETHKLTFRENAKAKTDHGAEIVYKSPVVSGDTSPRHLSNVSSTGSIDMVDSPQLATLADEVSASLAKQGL

Compound: COc1ccc(CCN2CCC(Nc3nc4ccccc4n3Cc3ccc(F)cc3)CC2)cc1 [Ast, Astemizol, reference compound]
Affinity to tau filaments (in words) (Human Tau (441a.a.)): high affinity | Tau polymer concentration ([1]; compound 10 μM): 2.84 + 0.002 mg/mL

Compound: Cc1cccc(C#Cc2ccccc2)n1 [MPEP]
Docking Energies (mGluR 5): -7.77 kcal/mol

Compound: O=C(Cc1ccccc1)c1ccc2nc3c(cc2c1)CCCO3 [R214127]
Docking Energies (mGluR I): -7.34 kcal/mol

Compound: COc1ccc2nc(-c3ccc(C)cc3)ccc2c1 [THQ 3S, 2-(4-methylphenyl), 6-(O-methyl)quinoline]
Log P (experimental) [2, 6]: 0.434 + 0.005

Compound: Cc1ccc(-c2ccc3cc(C)ccc3n2)cc1 [THQ 4S, 2-(4methylphenyl), 6-(methyl)quinoline]
Displacement of the radioligand (hTau protein [3]): do not displace the radioligand | Liposolubility expressed as Log P (in words) [2]: optimal | logP [2, 6]: 2.66 | Ki (hTau protein [4]): > 10000 nM

logP [2, 6]: -0.214
Compound: Cc1ccc(-c2ccc3cccc(Br)c3n2)cc1 [THQ 9S, 2-(4-methylphenyl), 8-(bromo)quinoline]

Liposolubility expressed as Log P (in words) [2]: optimal | logP [2, 6]: 2.58
Compound: Cc1cccc(-c2ccc3cc(C)ccc3n2)c1 [THQ 12S, 2-(5-methylphenyl), 6-(methyl)quinoline]

Compound: Cc1ccc2nc(-c3ccc(N)cc3)ccc2c1 [THQ 55, 2-(4-aminophenyl), 6-(methyl)quinoline]
Displacement of the radioligand (hTau protein [3]): do not displace the radioligand | Effect over the auto-aggregation of tau protein (sedimented protein at λ 280 nm) [1]: pronounced inhibitory effect | Tau polymer concentration ([1]; compound 1.0 μM): 2.72 + 0.002 mg/mL | Tau polymer concentration ([1]; compound 10 μM): 2.43 + 0.003 mg/mL | Tau polymer concentration ([1]; compound 50.0 μM): 0.79 + 0.004 mg/mL | Liposolubility expressed as Log P (in words) [2]: optimal | logP [2, 6]: 1.97 | Ki (hTau protein [4]): > 10000 nM | Inhibition of tau aggregation (absorbance at λ 340) [5]: high capacity to inhibit tau aggregation

Compound: COc1ccc(CCN2CCC(Nc3nc4ccccc4n3Cc3ccc(F)cc3)CC2)cc1 [^3H-AST, [O-methyl-3H]-astemizol]
Kd (Human Tau (441a.a.); [7]): 1.86 nM | Kd (Human PHFs): 3.94 nM

Compound: [3H]COc1ccc(CCN2CCC(Nc3nc4ccccc4n3Cc3ccc(F)cc3)CC2)cc1 [^3H-AST, [O-methyl-3H]-astemizol]
Bmax/Kd index (Human Tau (441a.a.)): 3.00 | Affinity to tau filaments (in words) (Human Tau (441a.a.)): high affinity | Bmax (Human Tau (441a.a.); [7]): 5.7 pmol/nmol tau | Bmax (Human PHFs): 13.07 nM | Bmax/Kd index (Human PHFs): 3.316

Reference: patent US20110269793A1, “METHOD FOR PREVENTING TAU PROTEIN AGGREGATION AND TREATING ALZHEIMER'S DISEASE WITH A QUINOLINE DERIVATIVE COMPOUND” (priority 2010, published 2011)
